Experimental data taken from patent US20110229580A1, “COMPOSITIONS AND METHODS FOR NANO-IN-MICRO PARTICLES” (Indian Institute of Technology Bombay, School of …, priority 2010, published 2011).

Test: Confocal laser scanning microscopy of dye retention in CaCO3 nanoparticles
Format: physicochemical
Conditions: CLSM
Description: Fluorescent images of FITC-dex (70 kDa) loaded CaCO3 nanoparticles were examined using confocal microscopy. Confocal micrographs of micro/nanoparticles were obtained with a flow view confocal laser scanning microscope (CLSM) equipped with a krypton-argon laser (Olympus FluoView™, Japan). An inverted microscope was also used which was equipped with an oil immersion objective lens (40×). The standard filter settings for fluorescence excitation (488 nm) and emission (520 nm) were used.

O=C1OC2(c3ccc(O)cc3Oc3cc(O)ccc32)c2ccc(N=C=S)cc21 [FITC dye]
retention in CaCO3 nanoparticles: not retained
